Experimental data taken from patent publication US20230278972A1, “SUBSTITUTED HALOALKYL SULFONANILIDE HERBICIDES” (FMC Corporation, priority 2020, published 2023).

Key:
Assay type in all cases: in vivo
[1] = tested on: ragweed (common ragweed, Ambrosia artemisiifolia); experiment: Test A1 postemergence, ragweed; conditions: for Ragweed plant response rating: 31 g ai/ha, postemergence; for Plant response rating, Ragweed: Postemergence, 125 g ai/ha
Method in brief: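 Plants grown in pots of loam/sand mix; preemergence = soil-directed spray on seeded pots, postemergence = spray at 1–2 leaves, height 2–10 cm; test chemicals formulated in non-phytotoxic solvent with surfactant.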

[2] = tested on: blackgrass (Alopecurus myosuroides); experiment: Test A1 postemergence, blackgrass; conditions: Postemergence, 0 to 100 scale (0 no effect, 100 complete control)
Method in brief: (§1)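 Pre: seeds in loam/sand blend, directed soil spray. Post: potted plants, same soil, 2–10 cm, 1–2 leaf stage. Chemicals in non-phytotoxic solvent + surfactant for both.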

[3] = tested on: wheat (Triticum aestivum); experiment: Test A1 postemergence, wheat; conditions: for Wheat plant response rating: 31 g ai/ha, postemergence; for Plant response rating, Wheat: Postemergence, 125 g ai/ha
Method in brief: as §1

corn (Zea mays) = experiment: Test A1 postemergence, corn; conditions: for Plant response rating, Corn: Postemergence; for Corn plant response rating: postemergence
Method in brief: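 Seeds were first planted into a blend of loam soil and sand and given a preemergence directed soil spray. In parallel, pots of the same soil were sown for postemergence application once plants reached 2 to 10 cm and the one- to two-leaf stage. Both used surfactant-containing non-phytotoxic solvent formulations.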

[4] = 0 to 100 scale (0 no effect, 100 complete control)
[5] = 31 g ai/ha, 0 to 100 scale (0 no effect, 100 complete control), 10 days
[6] = 0 to 100 scale (0 no effect, 100 complete control), 10 days
[7] = 31 g ai/ha, 0 to 100 scale (0 no effect, 100 complete control)
[8] = 125 g ai/ha, 0 to 100 scale (0 no effect, 100 complete control), 10 days

| SMILES | Ragweed plant response rating [1, 4] | Plant response rating, Ragweed ([1]; 0 to 100 scale) | Plant response rating, Blackgrass ([2]; 31 g ai/ha, 10 days) | Plant response rating, Blackgrass ([2]; 125 g ai/ha) | Wheat plant response rating [3, 4] | Plant response rating, Wheat ([3]; 0 to 100 scale) | Plant response rating, Corn (corn (Zea mays); [5]) | Plant response rating, Corn (corn (Zea mays); 125 g ai/ha, 0 to 100 scale) | Plant response rating, Ragweed [1, 6] | Plant response rating, Wheat [3, 6] | Corn plant response rating (corn (Zea mays); [7]) | Plant response rating, Corn (corn (Zea mays); [8]) |
| --- | --- | --- | --- | --- | --- | --- | --- | --- | --- | --- | --- | --- |
| Cc1c(C(=O)N2C[C@@H](C)O[C@H](C)C2)cc(N(COC(=O)C(C)(C)C)S(=O)(=O)C(F)(F)F)c(C)c1C (relative stereo) [Compound 373] | 50 | 80 | 0 | 10 | 0 | 70 | 0 | 40 | – | – | – | – |
| CCOC(=O)N(c1cc(C(=O)N2C[C@@H](C)O[C@H](C)C2)c(C)c(C)c1C)S(=O)(=O)C(F)(F)F (relative stereo) [Compound 374] | 60 | 80 | 0 | 10 | 20 | 50 | 60 | 70 | – | – | – | – |
| Cc1c(NS(=O)(=O)C(F)(F)F)cc(C(=O)N2CCC(C)CC2)c(C)c1C [Compound 366] | 40 | 80 | 0 | 0 | 0 | 20 | 0 | 0 | – | – | – | – |
| COC1CCN(C(=O)c2cc(NS(=O)(=O)C(F)(F)F)c(C)c(C)c2C)CC1 [Compound 367] | 50 | 70 | 0 | 0 | 0 | 20 | 0 | 70 | – | – | – | – |
| C#CCN(C)C(=O)c1cc(NS(=O)(=O)C(F)(F)F)c(C)c(C)c1C [Compound 368] | 50 | 80 | 0 | 10 | 20 | 60 | 40 | 90 | – | – | – | – |
| COC1CCN(C(=O)c2cc(N(COC(=O)C(C)(C)C)S(=O)(=O)C(F)(F)F)c(C)c(C)c2C)CC1 [Compound 370] | 50 | 70 | 0 | 0 | 10 | 20 | 0 | 90 | – | – | – | – |
| C#CCN(C)C(=O)c1cc(N(COC(=O)C(C)(C)C)S(=O)(=O)C(F)(F)F)c(C)c(C)c1C [Compound 371] | 40 | 70 | 0 | 10 | 0 | 60 | 60 | 90 | – | – | – | – |
| Cc1cc(Cl)c(NS(=O)(=O)C(F)(F)F)cc1N1CCC2(CCCCC2)C1=O [Compound 393] | 60 | – | – | – | 30 | – | – | – | 70 | 60 | 0 | 30 |
| Cc1cc(Cl)c(NS(=O)(=O)C(F)(F)F)cc1N1CC2(CCCCC2)OC1=O [Compound 394] | 90 | – | – | – | 10 | – | – | – | 90 | 40 | 0 | 40 |
